{
  "source": "BindingDB's records for doi:10.1021/jm1005989",
  "about": "(Pfizer, 2010)",
  "target": "Beta-2 adrenergic receptor (Homo sapiens, UniProt P07550)",
  "sequence (P07550 whole entry)": "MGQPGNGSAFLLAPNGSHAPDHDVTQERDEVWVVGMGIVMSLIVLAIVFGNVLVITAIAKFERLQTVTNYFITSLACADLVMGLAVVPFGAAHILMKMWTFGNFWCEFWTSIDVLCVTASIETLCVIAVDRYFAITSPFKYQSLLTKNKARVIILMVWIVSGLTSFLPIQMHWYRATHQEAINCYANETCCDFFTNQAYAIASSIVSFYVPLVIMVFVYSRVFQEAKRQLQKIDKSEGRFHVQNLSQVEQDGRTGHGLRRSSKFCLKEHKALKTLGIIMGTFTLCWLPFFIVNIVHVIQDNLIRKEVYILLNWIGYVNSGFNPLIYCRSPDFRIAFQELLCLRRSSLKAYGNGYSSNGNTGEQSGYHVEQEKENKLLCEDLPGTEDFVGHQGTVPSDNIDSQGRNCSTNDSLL",
  "test": "Agonist activity at human recombinant beta2 adrenergic receptor expressed in CHO cells assessed as elevation in cAMP level after 1 hr by flashplate method",
  "note": "pEC50: −log10 of the molar value.",
  "data": [
    {"smiles": "CC(C)(Cc1cccc(CC(=O)NCc2ccc(Cl)c(Cl)c2)c1)NC[C@H](O)c1ccc(O)c(NS(C)(=O)=O)c1", "note": "[(R)-N-(3,4-dichlorobenzyl)-2-(3-(2-(2-hydroxy-2-(4-hydroxy-3-(methylsulfonamido)phenyl)ethylamino)-2-methylpropyl)phenyl)acetamide]", "values": [
      {"measurement": "pEC50", "result": 10.15}
    ]}
  ]
}
